Test results from patent US20140051762A1, “POLYCATIONIC COMPOUNDS AND USES THEREOF” (priority 2004, published 2014).
Values joined by “and” are separate entries in the source; they are usually repeats but may differ in a detail not shown here. Equal values may be shown once.

Experiments:
[1] = test system: Factor Xa; assay: anti-heparin assay, % Factor Xa inhibition at single concentration (chromogenic substrate S-2765); format: biochemical; details: Single concentration (10 ug/ml)
Description: (§1) The following example illustrates the heparin antagonistic effects of polycationic compounds of the present invention. To determine the anti-heparin activity of the polycationic compounds an assay measuring the percent inhibition using a fixed concentration of polycationic compound or concentrations of polycationic compounds causing lysis of 50% of human red blood cells were conducted.
10 IU of anti-thrombin was dissolved in 10 ml of buffer, resulting in a 1 IU/ml stock solution (250×) of the anti-thrombin. The 1 IU/ml (250×) stock solution of anti-thrombin and a 336 mM stock solution of NaCl were diluted into a total volume of 50 μl buffer so that the final anti-thrombin concentration was 0.004 IU/sample well and the NaCl was 150 mM/sample well. 1 μl of the compound to be tested, final concentration 10 μg/ml (corresponding to 0.5 logarithmic antagonist dilution) is added to the sample well. The samples are mixed and allowed to incubate at room temperature for 20 minutes. 50 μl of factor Xa dissolved in buffer is added to the sample well to a final concentration of 0.14 knat/well (2 μl of the 7.1 kna/1 ml stock solution to a final sample well buffer volume of 100 μl). The samples were mixed and further incubated at room temperature for 10 minutes. 10 μl of a 4 mM stock solution of the substrate S-2765 was added to each sample well for a final concentration of 0.4 mM in each sample well. The samples were mixed and hydrolyses of the chromogenic substrate Z-D-Arg-Gly-Arg-pNA (S-2765), thus liberating the chromophoric group pNA (p-nitroaniline), was monitored at 405 nm. The samples were mixed every 30 seconds to maintain a uniform mixture. ThermoLabsystems Multiskan Spectrum spectrophotometer was used to measure the absorbance spectrums. The increase in absorbance was proportional to the enzyme (factor Xa) activity. The % inhibition of factor Xa was determined using a standard curve.

[2] = test system: FGF2-induced angiogenesis in the CAM model; assay: FGF2-induced angiogenesis in the chick chorioallantoic membrane (CAM) model; format: in vivo, chick embryo; details: for Mean % inhibition ± SEM: Table 4
Description: The following example illustrates the anti-angiogenic effect of exemplary polycationic compounds of the present invention. Ten-day old embryos were purchased from Spafas, Inc. (Preston, Conn.) and were incubated at 37° C. with 55% relative humidity. In the dark with the help of a candling lamp, a small hole was punctured in the shell concealing the air sac with a hypodermic needle. A second hole was punctured in the shell on the broadside of the egg directly over an avascular portion of the embryonic membrane, as observed during candling. A false air sac was created beneath the second hole by the application of negative pressure to the first hole, which caused the chorioallantoic membrane (CAM) to separate from the shell. A window, approximately 1.0 cm^2, was cut in the shell over the dropped CAM with the use of a small crafts grinding wheel (Dremel, Division of Emerson Electric Company Racine, Wis.) which allowed direct access to the underlying CAM. Filter disks of #1 filter paper (Whatman International, United Kingdom) were soaked in 3 mg/mL cortisone acetate (Sigma, St. Louis, Mo.) in a solution of 95% ethanol and water and subsequently air dried under sterile conditions. FGF2 (Life Technologies, Gaithersburg, Md.) was used to grow vessels on the CAMs of 10 day old chick embryos. Sterile filter disks adsorbed with FGF2 dissolved in PBS at 1μg/mL were placed on growing CAMs. […] At 24 h, test compounds or control vehicle was added directly to CAM topically.
(§2) CAM tissue directly beneath FGF2-saturated filter disk was resected from embryos treated 48 hours prior with test compound or control. Tissues were washed three times with PBS. Sections were placed in a 35-mm petri dish (Nalgen Nunc, Rochester, N.Y.) and examined under a SV6 stereomicroscope (Karl Zeiss, Thornwood, N.Y.) at 50× magnification. Digital images of CAM sections adjacent to filters were collected using a 3-CCD color video camera system (Toshiba America, New York, N.Y.) and analyzed using Image-Pro Plus software (Media Cybernetics, Silver Spring, Md.). Table 4 contains the number of vessel branch points contained in a circular region equal to the area of a filter disk counted for each section.
as §2, with “48 h” for “48 hours”, “with” for “with test”, “dish (Nalge” for “dish (Nalgen”, “analyzed with the” for “analyzed using”, “Md.).” for “Md.). Table 4 contains the number of vessel branch points contained in a circular region equal to the area of a filter disk counted for each section.”

[3] = test system: human red blood cells; assay: lysis of 50% of human red blood cells (HC50); format: cell-based
Description: as §1
Factor Xa Inhibition: EC50. To determine the concentration of polycationic compound that causes about 50% […], fixed heparin concentrations were used and different amounts of heparin antagonists were added.

[4] = test system: heparin; assay: effect on coagulation time and heparin efficacy; details: Compound 26 0 mg/L
Description: The following example illustrates the effect of a polycationic compound of the present invention on coagulation time. The anti-heparin assay as described herein was used. The assay contained either 1 mg/L, 2 mg/L or 4 mg/I of heparin and increasing amounts of Compound 26 was added.

Row | Compound | % FactorXa Inhibition [1] | other results
1 | CC(C)(C)c1cc(N)c(SCCN)c(NC(=O)c2cccc(C(=O)Nc3cc(C(C)(C)C)cc(N)c3SCCN)c2)c1 [Compound 3] | 2.855% | 
2 | CC(C)(C)c1cc(NC(=O)c2cccc(C(=O)Nc3cc(C(C)(C)C)cc(NC(=O)[C@H](N)CCCCN)c3SCCN)c2)c(SCCN)c(NC(=O)[C@H](N)CCCCN)c1 [Compound 4] | 0.9517% | 
3 | CC(C)(C)c1cc(NC(=O)c2cc(OCCN)cc(C(=O)Nc3cc(C(C)(C)C)cc(NC(=O)[C@H](N)Cc4ccccc4)c3SCCN)c2)c(SCCN)c(NC(=O)[C@H](N)Cc2ccccc2)c1 [Compound 5] | 39.77% | 
4 | CC(C)(C)c1cc(NC(=O)CCCN)c(SCCN)c(NC(=O)c2cccc(C(=O)Nc3cc(C(C)(C)C)cc(NC(=O)CCCN)c3SCCN)c2)c1 [Compound 6] | 2.583% | 
5 | CC(C)(C)c1cc(NC(=O)c2cccc(C(=O)Nc3cc(C(C)(C)C)cc(NC(=O)[C@H](N)Cc4ccccc4)c3SCCN)c2)c(SCCN)c(NC(=O)[C@H](N)Cc2ccccc2)c1 [Compound 8] | 7.41% | 
6 | CC(C)(C)c1cc(N)c(SCCNC(=N)N)c(NC(=O)c2cccc(C(=O)Nc3cc(C(C)(C)C)cc(N)c3SCCNC(=N)N)c2)c1 [Compound 9] | 10.88% and 16.25% | 
7 | CC(C)(C)c1cc(NC(=O)CCCCNC(=N)N)c(SCCNC(=N)N)c(NC(=O)c2cccc(C(=O)Nc3cc(C(C)(C)C)cc(NC(=O)CCCCNC(=N)N)c3SCCNC(=N)N)c2)c1 [Compound 10] | 20.8% | 
8 | CC(C)(C)c1cc(NC(=O)CCCCN)c(SCCN)c(NC(=O)c2cccc(C(=O)Nc3cc(C(C)(C)C)cc(NC(=O)CCCCN)c3SCCN)c2)c1 [Compound 11] | 1.903% | 
9 | CC(C)(C)c1cc(NC(=O)CCCCNC(=N)N)c(SCCN)c(NC(=O)c2cccc(C(=O)Nc3cc(C(C)(C)C)cc(NC(=O)CCCCNC(=N)N)c3SCCN)c2)c1 [Compound 12] | 9.381% | 
10 | CC(C)(C)c1cc(NC(=O)c2cccc(C(=O)Nc3cc(C(C)(C)C)cc(NC(=O)c4cc(N)ccc4OCCCCCN)c3SCCN)c2)c(SCCN)c(NC(=O)c2cc(N)ccc2OCCCCCN)c1 [Compound 13] | 36.84% | 
11 | CC(C)(C)c1cc(N)c(SCCNC(=N)N)c(NC(=O)c2cc(OCCNC(=N)N)cc(C(=O)Nc3cc(C(C)(C)C)cc(N)c3SCCNC(=N)N)c2)c1 [Compound 14] | 40.99% | 
12 | CC(C)(C)c1cc(N)c(SCCN)c(NC(=O)c2cc(C(=O)Nc3cc(C(C)(C)C)cc(N)c3SCCN)c(OCCN)cc2OCCN)c1 [Compound 15] | 5.71% | 
13 | CC(C)(C)c1cc(N)c(SCCNC(=N)N)c(NC(=O)c2cc(C(=O)Nc3cc(C(C)(C)C)cc(N)c3SCCNC(=N)N)c(OCCNC(=N)N)cc2OCCNC(=N)N)c1 [Compound 16] | 30.39% | 
14 | CC(C)(C)c1cc(N)c(SCCNC(=N)N)c(NC(=O)c2cc(C(=O)Nc3cc(C(C)(C)C)cc(N)c3SCCNC(=N)N)c(OCCN)cc2OCCN)c1 [Compound 17] | 15.02% | 
15 | CC(C)(C)c1cc(NC(=N)N)c(SCCN)c(NC(=O)c2cc(C(=O)Nc3cc(C(C)(C)C)cc(NC(=N)N)c3SCCN)c(OCCN)cc2OCCN)c1 [Compound 18] | 13.26% | 
16 | CC(C)OC(=O)c1cc(NC(=O)c2cc(OCCN)cc(C(=O)Nc3cc(C(=O)OC(C)C)cc(NC(=O)[C@H](N)CCCNC(=N)N)c3SCCN)c2)c(SCCN)c(NC(=O)[C@H](N)CCCNC(=N)N)c1 [Compound 19] | 59.82% | 

Row | Compound | % FactorXa Inhibition [1] | other results
17 | CC(=O)Nc1cc(C(C)(C)C)cc(NC(=O)c2cccc(C(=O)Nc3cc(C(C)(C)C)cc(NC(C)=O)c3SCCNC(=N)N)c2)c1SCCNC(=N)N [Compound 20] | 7.852% | 
18 | CC(C)(C)c1cc(N)c(SCCNC2=NCCN2)c(NC(=O)c2cccc(C(=O)Nc3cc(C(C)(C)C)cc(N)c3SCCNC3=NCCN3)c2)c1 [Compound 21] | 1.496% | 
19 | CN(C)C(NCCSc1c(N)cc(C(C)(C)C)cc1NC(=O)c1cccc(C(=O)Nc2cc(C(C)(C)C)cc(N)c2SCCNC(N(C)C)=[N+](C)C)c1)=[N+](C)C [Compound 22] | 1.292% | 
20 | CC(=O)Nc1cc(C(C)(C)C)cc(NC(=O)c2cccc(C(=O)Nc3cc(C(C)(C)C)cc(NC(C)=O)c3SCCN)c2)c1SCCN [Compound 23] | 1.224% | 
21 | CC(=O)Nc1cc(C(C)(C)C)cc(NC(=O)c2cc(OCCN)cc(C(=O)Nc3cc(C(C)(C)C)cc(NC(C)=O)c3SCCN)c2)c1SCCN [Compound 24] | 1.835% | 
22 | N=C(N)NCCCCC(=O)Nc1cccc(NC(=O)c2cc(C(=O)Nc3cccc(NC(=O)NCCCNC(=N)N)c3SCCN)c(OCCN)cc2OCCN)c1SCCN [Compound 28] | 44.3% | 
23 | CC(C)(C)c1cc(N)c(SCCN)c(NC(=O)c2cc(C(=O)Nc3cc(C(C)(C)C)cc(N)c3SCCN)ncn2)c1 [Compound 33] | 32.02% | % inhibition ± SEM ([2]; Table 3, 1.0 ug + FGF2 (1 ug)): 17 ± 18%; Branch pts ± SEM ([2]; Table 3, 1.0 ug + FGF2 (1 ug)): 160 ± 18
24 | COc1ccc(NC(=O)C(CCCNC(=N)N)NC(=O)c2cc(NC(=O)C(CCCNC(=N)N)NC(=O)c3cc(NC(=O)C(CCCNC(=N)N)NC(=O)c4cc(NC(=O)C(N)CCCNC(=N)N)ccc4OC)ccc3OC)ccc2OC)cc1C(N)=O (stereo not drawn) [Compound 48] |  | Mean % inhibition ± SEM ([2]; 1.0 ug + FGF2 (1 ug), n = 8): 16 ± 6%; Mean % inhibition ± SEM ([2]; 3.0 ug + FGF2 (1 ug), n = 8): 38 ± 8%; Mean % inhibition ± SEM ([2]; 10 ug + FGF2 (1 ug), n = 8): 55 ± 7%; HC50 [3]: 261 μg/ml and 144 μM
25 | COC(=O)c1cc(NC(=O)c2cc(NC(=O)c3cc(NC(=O)c4cc(N)ccc4OC)ccc3OCCN)ccc2OC)ccc1OCCN [Compound 52] | 45.48% | 
26 | COC(=O)c1cc(NC(=O)c2cc(NC(=O)c3cc(NC(=O)c4cc(NC(=O)c5cc(NC(=O)c6cc(N)ccc6OC)ccc5OCCN)ccc4OC)ccc3OCCN)ccc2OC)ccc1OCCN [Compound 53] | 43.03% | 
27 | COC(=O)c1cc(OCCN)ccc1NC(=O)c1cc(OCCC(C)C)ccc1NC(=O)c1cc(OCCN)ccc1C(O)O [Compound 54] | 19.99% | 
28 | NCCc1cc(Br)cc(C#Cc2cccc(C#Cc3cc(Br)cc(CCN)c3)c2)c1 [Compound 55] | 46.5% | 
29 | Magainin [reference compound] | 4.419% | 
30 | fibroblast growth factor 2 [FgF2, reference compound] |  | Branch pts ± SEM ([2]; Table 2, FgF alone 1.0 ug/ml, n = 8): 155 ± 10; Branch pts ± SEM ([2]; Table 3, FgF2 alone 1.0 ug/ml): 177 ± 10
31 | heparin [reference compound] |  | Coagulation Time ([4]; Heparin 1 mg/L): 50.8 s; Heparin Efficacy ([4]; Heparin 1 mg/L): 1; Coagulation Time ([4]; Heparin 2 mg/L): 110.8 s; Heparin Efficacy ([4]; Heparin 2 mg/L): 1; Coagulation Time ([4]; Heparin 4 mg/L): 214.9 s; Heparin Efficacy ([4]; Heparin 4 mg/L): 1
